Measurements as given in US11612604B2, “Methods of treating cancer with PLK4 inhibitors” (LUDWIG INSTITUTE FOR CANCER RESEARCH LTD, priority 2017, dated 2023).

The compounds below were run against T1, PLK4 (Homo sapiens, UniProt O00444) (assay: Activity (IC50) of the Table 1 compounds as PLK4 inhibitors). Settings: Table 1, IC50 class.
T1 sequence (O00444 1-970): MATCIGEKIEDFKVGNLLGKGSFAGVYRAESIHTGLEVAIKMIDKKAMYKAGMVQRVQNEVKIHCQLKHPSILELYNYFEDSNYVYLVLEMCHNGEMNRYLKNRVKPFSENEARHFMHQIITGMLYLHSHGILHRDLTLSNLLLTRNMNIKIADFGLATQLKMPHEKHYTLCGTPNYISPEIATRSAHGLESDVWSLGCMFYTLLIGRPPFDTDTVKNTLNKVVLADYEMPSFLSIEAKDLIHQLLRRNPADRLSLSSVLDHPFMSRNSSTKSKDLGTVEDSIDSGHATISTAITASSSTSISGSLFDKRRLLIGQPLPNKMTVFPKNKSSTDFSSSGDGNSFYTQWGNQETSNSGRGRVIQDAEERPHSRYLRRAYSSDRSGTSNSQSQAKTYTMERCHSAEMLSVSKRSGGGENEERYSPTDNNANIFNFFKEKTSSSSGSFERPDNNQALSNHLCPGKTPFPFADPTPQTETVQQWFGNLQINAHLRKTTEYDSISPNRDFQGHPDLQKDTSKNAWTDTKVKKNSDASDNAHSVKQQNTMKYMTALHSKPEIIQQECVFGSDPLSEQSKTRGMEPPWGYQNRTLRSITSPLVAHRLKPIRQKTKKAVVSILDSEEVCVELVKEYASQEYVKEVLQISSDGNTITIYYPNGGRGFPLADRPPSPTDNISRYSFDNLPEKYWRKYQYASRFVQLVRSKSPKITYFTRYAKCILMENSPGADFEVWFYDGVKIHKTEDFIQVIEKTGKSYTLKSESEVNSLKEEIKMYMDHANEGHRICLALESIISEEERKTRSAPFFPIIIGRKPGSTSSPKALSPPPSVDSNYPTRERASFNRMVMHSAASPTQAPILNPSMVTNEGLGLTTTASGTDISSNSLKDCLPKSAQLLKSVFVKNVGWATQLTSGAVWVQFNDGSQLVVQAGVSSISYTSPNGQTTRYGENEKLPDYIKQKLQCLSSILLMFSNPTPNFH
Assay type: biochemical

SMILES | IC50
COc1c(Nc2cc(C)[nH]n2)nc(Sc2ccc(S(=O)(=O)Cc3cccc(C#N)c3F)cc2F)nc1N1CCOCC1 | < 100 nM
COc1c(Nc2cc(C)[nH]n2)nc(Sc2ccc(S(=O)(=O)Cc3cccc(N)c3F)cc2F)nc1N1CCOCC1 | < 100 nM
COc1c(Nc2cc(C)[nH]n2)nc(Sc2ccc(S(=O)(=O)C(F)c3cccc([N+](=O)[O-])c3F)cc2F)nc1N1CCOCC1 (centres unmarked) | < 100 nM
COC(=O)c1cccc(CS(=O)(=O)c2ccc(Sc3nc(Nc4cc(C)[nH]n4)c(OC)c(N4CCOCC4)n3)c(F)c2)c1F | < 100 nM
COc1c(Nc2cc(C)[nH]n2)nc(Sc2ccc(S(=O)(=O)Cc3cccc(C(=O)N(C)C)c3F)cc2F)nc1N1CCOCC1 | < 100 nM
COc1c(Nc2cc(C)[nH]n2)nc(Sc2ccc(S(=O)(=O)Cc3cccc(C(N)=O)c3F)cc2F)nc1N1CCOCC1 | < 100 nM
COc1c(Nc2cc(C)[nH]n2)nc(Sc2ccc(S(=O)(=O)Cc3cccc([N+](=O)[O-])c3F)cc2F)nc1N1CCOC[C@@H]1CO | < 100 nM
COc1c(Nc2cc(C)[nH]n2)nc(Sc2ccc(S(=O)(=O)Cc3cccc(Br)c3F)cc2F)nc1N1CCCCC1 | < 100 nM
COc1c(Nc2cc(C)[nH]n2)nc(Sc2ccc(S(=O)(=O)Cc3cccc(I)c3F)cc2F)nc1N1CCOCC1 | < 100 nM
COc1c(Nc2cc(C)[nH]n2)nc(Sc2ccc(S(=O)(=O)c3cccc([N+](=O)[O-])c3)cc2F)nc1N1CCOCC1 | < 100 nM
COc1c(Nc2cc(C)[nH]n2)nc(Sc2ccc(S(=O)(=O)c3cccc([N+](=O)[O-])c3F)cc2F)nc1N1CCOCC1 | < 100 nM
COc1c(Nc2cc(C)[nH]n2)nc(Sc2ccc(S(=O)(=O)C(F)c3cccc([N+](=O)[O-])c3F)cc2F)nc1N1CCN(CCN(C)C)CC1 (centres unmarked) | < 100 nM
COc1c(Nc2cc(C)[nH]n2)nc(Sc2ccc(C#Cc3cccc([N+](=O)[O-])c3F)cc2F)nc1N1CCOCC1 | < 100 nM

Further lines, results first:

IC50 | SMILES
< 100 nM | Cc1cc(Nc2cc(C)[nH]n2)nc(Sc2ccc(NC(=O)C3CC3)cc2)n1
< 100 nM | CCS(=O)(=O)c1ccc(Sc2nc(Nc3cc(C)[nH]n3)c(OC)c(N3CCN(CCN(C)C)CC3)n2)c(F)c1
< 100 nM | CCS(=O)(=O)c1ccc(Sc2nc(Nc3cc(C)[nH]n3)c(OC)c(N3CCC(CCN(C)C)CC3)n2)c(F)c1
< 100 nM | CCS(=O)(=O)c1ccc(Sc2nc(Cc3cc(C)[nH]n3)c(OC)c(N3CCOC[C@@H]3C)n2)c(Cl)c1
< 100 nM | COc1c(Cc2cc(C)[nH]n2)nc(Sc2ccc(S(C)(=O)=O)cc2F)nc1N1CCOC[C@@H]1C
< 100 nM | COc1c(Nc2cc(C)[nH]n2)nc(Sc2ccc(S(=O)(=O)Cc3cccc(F)c3F)cc2F)nc1N1CCCCC1
< 100 nM | COc1c(Nc2cc(C)[nH]n2)nc(Sc2ccc(S(=O)(=O)Cc3cccc(F)c3F)cc2F)nc1N1CCOCC1
< 100 nM | COc1c(Nc2cc(C)[nH]n2)nc(Sc2ccc(S(=O)(=O)Cc3cccc(F)c3F)cc2F)nc1N1CCN(CCN(C)C)CC1
< 100 nM | COc1c(Cc2cc(C)[nH]n2)nc(Sc2ccc(S(=O)(=O)Cc3cccc(F)c3F)cc2F)nc1N1CCOC[C@@H]1C
< 100 nM | COc1c(Nc2cc(C)[nH]n2)nc(Sc2ccc(S(=O)(=O)Cc3c(F)ccc(F)c3F)cc2F)nc1N1CCN(CCN(C)C)CC1
< 100 nM | COc1c(Nc2cc(C)[nH]n2)nc(Sc2ccc(S(=O)(=O)Cc3cccc([N+](=O)[O-])c3F)cc2F)nc1N1CCOC[C@@H]1C
< 100 nM | COc1c(Nc2cc(C)[nH]n2)nc(Sc2ccc(S(=O)(=O)Cc3cccc([N+](=O)[O-])c3)cc2)nc1N1CCOC[C@@H]1CO
< 100 nM | COc1c(Nc2cc(C)[nH]n2)nc(Sc2ccc(S(=O)(=O)Cc3cccc(Cl)c3F)cc2F)nc1N1CCOCC1
< 100 nM | COc1c(Nc2cc(C)[nH]n2)nc(Sc2ccc(S(=O)(=O)Cc3cccc(Br)c3F)cc2F)nc1N1CCOCC1
< 100 nM | COc1c(Nc2cc(C)[nH]n2)nc(Sc2ccc(S(=O)(=O)Cc3c(F)c(F)cc(F)c3F)cc2F)nc1N1CCOCC1
< 100 nM | COc1c(Nc2cc(C)[nH]n2)nc(Sc2ccc(S(=O)(=O)Cc3cccc(C(F)(F)F)c3F)cc2F)nc1N1CCOCC1
